Common to all, as to test: KinomeScan kinase panel, single concentration 10 µM
Common to all, as to assay type: binding

The target in assay [1] is T1, KinomeScan kinase panel (Homo sapiens, UniProt P21802).
T1 construct: purchased DiscoveRx (KinomeScan)
To be noted: FGFR2, 10 µM; read-out: score (%).

The target of assay [2] is T2, KinomeScan kinase panel (Homo sapiens, UniProt Q9P289).
T2 construct: purchased DiscoveRx (KinomeScan)
To be noted: MST4, 10 µM; read-out: score (%).

In assay [3] the target is T3, KinomeScan kinase panel (Homo sapiens, UniProt Q16620).
T3 construct: purchased DiscoveRx (KinomeScan)
As to conditions: 10 µM, read-out: score (%).

Assay [4] has as its target T4, KinomeScan kinase panel (Homo sapiens, UniProt O00444).
T4 construct: purchased DiscoveRx (KinomeScan)
T4 sequence (O00444 1-970): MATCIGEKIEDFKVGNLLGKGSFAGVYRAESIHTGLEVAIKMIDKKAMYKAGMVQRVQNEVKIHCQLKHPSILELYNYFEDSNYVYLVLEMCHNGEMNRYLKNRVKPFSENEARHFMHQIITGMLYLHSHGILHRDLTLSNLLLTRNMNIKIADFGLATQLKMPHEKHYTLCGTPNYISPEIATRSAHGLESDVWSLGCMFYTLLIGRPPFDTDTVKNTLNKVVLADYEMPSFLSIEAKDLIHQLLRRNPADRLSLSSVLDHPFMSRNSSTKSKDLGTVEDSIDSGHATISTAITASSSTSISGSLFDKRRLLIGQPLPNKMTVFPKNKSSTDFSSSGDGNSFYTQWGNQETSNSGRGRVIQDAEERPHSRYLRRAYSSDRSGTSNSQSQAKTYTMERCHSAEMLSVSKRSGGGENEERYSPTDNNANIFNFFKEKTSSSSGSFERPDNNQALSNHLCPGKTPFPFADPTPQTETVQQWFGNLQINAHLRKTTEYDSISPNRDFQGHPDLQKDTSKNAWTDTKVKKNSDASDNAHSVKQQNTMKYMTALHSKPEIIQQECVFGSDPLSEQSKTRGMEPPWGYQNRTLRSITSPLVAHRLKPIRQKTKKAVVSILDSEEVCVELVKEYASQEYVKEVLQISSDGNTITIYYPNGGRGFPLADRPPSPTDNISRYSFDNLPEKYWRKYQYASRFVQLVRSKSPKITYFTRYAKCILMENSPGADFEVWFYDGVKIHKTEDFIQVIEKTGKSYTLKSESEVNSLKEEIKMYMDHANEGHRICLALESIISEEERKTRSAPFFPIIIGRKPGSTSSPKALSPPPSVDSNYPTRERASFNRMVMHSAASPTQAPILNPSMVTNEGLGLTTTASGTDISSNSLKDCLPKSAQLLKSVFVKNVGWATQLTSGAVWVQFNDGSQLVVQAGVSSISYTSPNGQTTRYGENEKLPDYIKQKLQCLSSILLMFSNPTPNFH
As to conditions: read-out: score (%).

The target of assay [5] is T5, KinomeScan kinase panel (Homo sapiens, UniProt Q9NRP7).
T5 construct: purchased DiscoveRx (KinomeScan)
T5 sequence (Q9NRP7 1-1315): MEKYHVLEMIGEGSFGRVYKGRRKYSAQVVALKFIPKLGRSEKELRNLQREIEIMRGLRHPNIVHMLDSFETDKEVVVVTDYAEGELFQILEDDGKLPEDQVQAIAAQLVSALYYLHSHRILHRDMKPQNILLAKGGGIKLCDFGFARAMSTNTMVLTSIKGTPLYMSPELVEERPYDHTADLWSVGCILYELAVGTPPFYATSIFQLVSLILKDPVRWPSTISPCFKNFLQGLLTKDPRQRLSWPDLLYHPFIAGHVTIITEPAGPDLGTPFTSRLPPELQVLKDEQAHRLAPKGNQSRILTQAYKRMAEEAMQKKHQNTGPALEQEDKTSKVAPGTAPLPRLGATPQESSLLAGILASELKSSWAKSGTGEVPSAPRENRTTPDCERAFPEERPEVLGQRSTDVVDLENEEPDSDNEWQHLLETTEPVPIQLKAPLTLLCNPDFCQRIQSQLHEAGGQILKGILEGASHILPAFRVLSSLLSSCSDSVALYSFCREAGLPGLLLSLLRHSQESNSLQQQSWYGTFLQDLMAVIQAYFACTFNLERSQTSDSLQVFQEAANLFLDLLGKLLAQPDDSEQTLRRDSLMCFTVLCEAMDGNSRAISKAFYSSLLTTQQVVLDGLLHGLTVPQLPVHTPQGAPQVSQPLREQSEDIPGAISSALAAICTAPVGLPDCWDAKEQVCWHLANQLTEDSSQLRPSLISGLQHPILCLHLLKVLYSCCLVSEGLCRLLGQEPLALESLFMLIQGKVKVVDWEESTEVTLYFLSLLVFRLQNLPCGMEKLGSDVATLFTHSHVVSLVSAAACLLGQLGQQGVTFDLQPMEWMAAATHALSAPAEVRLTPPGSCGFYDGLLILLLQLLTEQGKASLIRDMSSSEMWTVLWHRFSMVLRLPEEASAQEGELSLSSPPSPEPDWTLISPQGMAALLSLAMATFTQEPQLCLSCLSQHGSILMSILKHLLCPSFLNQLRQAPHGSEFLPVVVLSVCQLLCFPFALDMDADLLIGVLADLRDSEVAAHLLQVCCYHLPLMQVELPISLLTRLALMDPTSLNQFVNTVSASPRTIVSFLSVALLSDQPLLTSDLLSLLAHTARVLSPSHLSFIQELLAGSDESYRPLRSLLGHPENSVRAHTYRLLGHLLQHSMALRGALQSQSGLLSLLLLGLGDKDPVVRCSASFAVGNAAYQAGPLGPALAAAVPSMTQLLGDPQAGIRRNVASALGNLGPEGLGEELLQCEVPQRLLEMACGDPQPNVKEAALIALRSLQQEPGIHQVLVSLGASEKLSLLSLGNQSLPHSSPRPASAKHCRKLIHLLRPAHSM
To be noted: read-out: score (%).

Assay [6] has as its target T6, KinomeScan kinase panel (Homo sapiens, UniProt Q16513).
T6 construct: purchased DiscoveRx (KinomeScan)
To be noted: PKN2, 10 µM; read-out: score (%).

The target of assay [7] is T7, KinomeScan kinase panel (Homo sapiens, UniProt Q86UE8).
T7 construct: purchased DiscoveRx (KinomeScan)
T7 sequence (Q86UE8 whole entry): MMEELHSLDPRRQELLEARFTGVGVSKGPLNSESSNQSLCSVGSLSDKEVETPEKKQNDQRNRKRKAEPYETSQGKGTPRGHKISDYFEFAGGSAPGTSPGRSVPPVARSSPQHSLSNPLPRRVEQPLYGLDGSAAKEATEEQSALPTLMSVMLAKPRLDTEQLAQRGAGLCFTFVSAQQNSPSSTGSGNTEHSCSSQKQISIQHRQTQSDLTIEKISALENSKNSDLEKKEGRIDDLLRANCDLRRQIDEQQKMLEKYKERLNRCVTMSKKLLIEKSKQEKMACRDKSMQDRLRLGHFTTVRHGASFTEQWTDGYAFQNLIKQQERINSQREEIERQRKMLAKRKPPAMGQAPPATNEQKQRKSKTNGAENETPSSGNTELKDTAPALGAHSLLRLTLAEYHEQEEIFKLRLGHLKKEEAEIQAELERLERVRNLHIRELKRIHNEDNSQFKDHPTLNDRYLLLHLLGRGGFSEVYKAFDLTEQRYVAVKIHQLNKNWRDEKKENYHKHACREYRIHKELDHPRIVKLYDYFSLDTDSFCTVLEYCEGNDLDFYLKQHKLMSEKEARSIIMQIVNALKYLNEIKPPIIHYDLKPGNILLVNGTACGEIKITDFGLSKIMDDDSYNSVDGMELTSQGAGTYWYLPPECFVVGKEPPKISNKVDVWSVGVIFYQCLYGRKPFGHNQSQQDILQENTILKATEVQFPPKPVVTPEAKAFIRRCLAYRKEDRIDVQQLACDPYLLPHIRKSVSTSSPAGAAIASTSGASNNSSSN
To be noted: read-out: score (%).

Assay [8] concerns the target T8, KinomeScan kinase panel (Homo sapiens, UniProt Q9UPE1).
T8 construct: purchased DiscoveRx (KinomeScan)
To be noted: read-out: score (%).

The target in assay [9] is T9, KinomeScan kinase panel (Homo sapiens, UniProt P00533, G719C).
T9 construct: purchased DiscoveRx (KinomeScan)
T9 sequence (P00533 25-1210 G719C): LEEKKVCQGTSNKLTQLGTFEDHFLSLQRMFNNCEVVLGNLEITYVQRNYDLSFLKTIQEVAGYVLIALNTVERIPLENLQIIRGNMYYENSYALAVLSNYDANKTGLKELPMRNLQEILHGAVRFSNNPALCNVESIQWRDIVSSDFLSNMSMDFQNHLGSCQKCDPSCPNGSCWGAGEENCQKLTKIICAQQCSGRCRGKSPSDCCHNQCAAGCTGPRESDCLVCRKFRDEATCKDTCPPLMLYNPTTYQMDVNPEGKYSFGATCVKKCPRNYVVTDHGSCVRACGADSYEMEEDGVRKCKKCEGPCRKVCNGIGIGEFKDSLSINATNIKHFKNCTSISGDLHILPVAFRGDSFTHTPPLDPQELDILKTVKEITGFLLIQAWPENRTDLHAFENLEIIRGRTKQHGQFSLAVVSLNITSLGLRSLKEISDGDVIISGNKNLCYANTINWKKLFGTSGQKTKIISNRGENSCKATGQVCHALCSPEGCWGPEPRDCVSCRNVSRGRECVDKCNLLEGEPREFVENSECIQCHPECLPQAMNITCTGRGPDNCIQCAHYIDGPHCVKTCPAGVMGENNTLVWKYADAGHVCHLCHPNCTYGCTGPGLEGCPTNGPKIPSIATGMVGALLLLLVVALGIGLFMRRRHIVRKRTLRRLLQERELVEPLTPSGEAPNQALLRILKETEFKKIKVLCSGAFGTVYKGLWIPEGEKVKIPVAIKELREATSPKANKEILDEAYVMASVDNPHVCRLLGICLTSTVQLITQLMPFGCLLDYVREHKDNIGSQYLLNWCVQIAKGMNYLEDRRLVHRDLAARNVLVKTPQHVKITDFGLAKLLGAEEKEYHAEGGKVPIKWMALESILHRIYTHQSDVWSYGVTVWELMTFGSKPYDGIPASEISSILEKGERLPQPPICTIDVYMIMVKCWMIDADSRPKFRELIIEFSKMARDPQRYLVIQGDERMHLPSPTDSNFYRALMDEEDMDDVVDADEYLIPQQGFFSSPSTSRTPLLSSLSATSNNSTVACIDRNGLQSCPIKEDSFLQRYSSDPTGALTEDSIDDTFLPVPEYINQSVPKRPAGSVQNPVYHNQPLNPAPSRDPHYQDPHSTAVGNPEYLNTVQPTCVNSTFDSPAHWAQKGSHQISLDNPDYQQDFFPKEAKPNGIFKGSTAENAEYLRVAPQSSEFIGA
As to conditions: EGFR(G719C), 10 µM.

Assay [10] concerns the target T10, KinomeScan kinase panel (Homo sapiens, UniProt P23458).
T10 construct: purchased DiscoveRx (KinomeScan)

Setting [11] is: JAK1(JH1domain-catalytic), 10 µM.

The structures appear in SMILES notation. Where two headings read alike, the source gives them in different places. Bounds are passed on as bounds.

Here are results for three molecules from paper PMC4457528, “Identification of Novel Small Molecule Inhibitors of Oncogenic RET Kinase” (PLoS ONE, 2015).

T2 sequence (Q9P289 whole entry): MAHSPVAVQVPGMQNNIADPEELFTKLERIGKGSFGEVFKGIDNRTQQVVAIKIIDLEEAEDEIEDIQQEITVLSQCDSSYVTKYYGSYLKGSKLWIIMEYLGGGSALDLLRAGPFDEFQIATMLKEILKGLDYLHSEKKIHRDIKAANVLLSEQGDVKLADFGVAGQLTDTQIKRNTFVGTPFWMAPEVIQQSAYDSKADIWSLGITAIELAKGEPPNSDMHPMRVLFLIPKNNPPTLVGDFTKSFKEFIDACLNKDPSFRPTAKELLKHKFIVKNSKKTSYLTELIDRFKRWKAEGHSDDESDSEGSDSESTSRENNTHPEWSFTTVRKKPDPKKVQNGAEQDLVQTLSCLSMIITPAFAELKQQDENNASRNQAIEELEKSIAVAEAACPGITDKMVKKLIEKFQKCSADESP
T8 sequence (Q9UPE1 whole entry): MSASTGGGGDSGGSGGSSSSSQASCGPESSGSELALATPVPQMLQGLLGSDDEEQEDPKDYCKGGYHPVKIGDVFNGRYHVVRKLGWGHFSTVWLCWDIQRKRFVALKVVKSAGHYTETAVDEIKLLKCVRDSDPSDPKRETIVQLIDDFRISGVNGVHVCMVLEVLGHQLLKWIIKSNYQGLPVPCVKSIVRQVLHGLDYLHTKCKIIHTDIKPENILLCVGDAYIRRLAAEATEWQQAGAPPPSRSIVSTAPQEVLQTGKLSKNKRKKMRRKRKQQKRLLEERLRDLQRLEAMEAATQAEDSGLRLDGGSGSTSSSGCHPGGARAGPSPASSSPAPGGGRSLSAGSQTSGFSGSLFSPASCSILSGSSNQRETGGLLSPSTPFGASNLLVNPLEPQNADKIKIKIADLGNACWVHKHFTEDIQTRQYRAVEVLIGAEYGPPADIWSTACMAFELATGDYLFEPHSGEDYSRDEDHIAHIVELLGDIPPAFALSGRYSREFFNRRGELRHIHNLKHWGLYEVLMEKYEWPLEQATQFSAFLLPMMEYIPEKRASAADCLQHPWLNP
T10 sequence (P23458 whole entry): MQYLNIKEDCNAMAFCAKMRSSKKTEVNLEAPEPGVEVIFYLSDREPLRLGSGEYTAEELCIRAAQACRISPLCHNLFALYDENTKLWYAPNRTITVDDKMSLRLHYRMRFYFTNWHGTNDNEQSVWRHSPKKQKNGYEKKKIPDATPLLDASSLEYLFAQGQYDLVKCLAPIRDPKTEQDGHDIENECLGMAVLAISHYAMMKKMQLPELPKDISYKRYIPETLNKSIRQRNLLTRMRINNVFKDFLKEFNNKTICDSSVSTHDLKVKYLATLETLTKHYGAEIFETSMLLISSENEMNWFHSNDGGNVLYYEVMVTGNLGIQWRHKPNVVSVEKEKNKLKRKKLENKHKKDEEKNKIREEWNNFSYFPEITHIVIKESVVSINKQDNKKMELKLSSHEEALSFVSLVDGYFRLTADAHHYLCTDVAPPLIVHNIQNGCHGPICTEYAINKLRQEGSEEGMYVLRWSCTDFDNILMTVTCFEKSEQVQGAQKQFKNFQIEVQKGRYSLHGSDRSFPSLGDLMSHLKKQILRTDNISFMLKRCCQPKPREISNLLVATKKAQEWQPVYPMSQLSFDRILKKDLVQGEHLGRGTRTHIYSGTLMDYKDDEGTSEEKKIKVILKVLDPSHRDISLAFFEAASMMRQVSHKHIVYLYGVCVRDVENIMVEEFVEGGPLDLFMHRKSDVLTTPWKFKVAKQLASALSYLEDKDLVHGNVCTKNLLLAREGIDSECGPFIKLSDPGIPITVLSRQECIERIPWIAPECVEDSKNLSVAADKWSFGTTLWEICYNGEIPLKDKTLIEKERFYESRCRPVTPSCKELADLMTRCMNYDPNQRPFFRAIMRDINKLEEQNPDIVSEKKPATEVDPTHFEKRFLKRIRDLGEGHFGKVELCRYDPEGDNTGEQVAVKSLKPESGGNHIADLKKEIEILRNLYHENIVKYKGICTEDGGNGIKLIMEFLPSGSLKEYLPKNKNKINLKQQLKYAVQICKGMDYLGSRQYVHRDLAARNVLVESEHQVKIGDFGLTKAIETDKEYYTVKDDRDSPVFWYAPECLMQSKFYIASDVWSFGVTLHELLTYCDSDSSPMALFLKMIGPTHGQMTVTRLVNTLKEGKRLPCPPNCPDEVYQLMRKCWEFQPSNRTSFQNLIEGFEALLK
T6 sequence (Q16513 whole entry): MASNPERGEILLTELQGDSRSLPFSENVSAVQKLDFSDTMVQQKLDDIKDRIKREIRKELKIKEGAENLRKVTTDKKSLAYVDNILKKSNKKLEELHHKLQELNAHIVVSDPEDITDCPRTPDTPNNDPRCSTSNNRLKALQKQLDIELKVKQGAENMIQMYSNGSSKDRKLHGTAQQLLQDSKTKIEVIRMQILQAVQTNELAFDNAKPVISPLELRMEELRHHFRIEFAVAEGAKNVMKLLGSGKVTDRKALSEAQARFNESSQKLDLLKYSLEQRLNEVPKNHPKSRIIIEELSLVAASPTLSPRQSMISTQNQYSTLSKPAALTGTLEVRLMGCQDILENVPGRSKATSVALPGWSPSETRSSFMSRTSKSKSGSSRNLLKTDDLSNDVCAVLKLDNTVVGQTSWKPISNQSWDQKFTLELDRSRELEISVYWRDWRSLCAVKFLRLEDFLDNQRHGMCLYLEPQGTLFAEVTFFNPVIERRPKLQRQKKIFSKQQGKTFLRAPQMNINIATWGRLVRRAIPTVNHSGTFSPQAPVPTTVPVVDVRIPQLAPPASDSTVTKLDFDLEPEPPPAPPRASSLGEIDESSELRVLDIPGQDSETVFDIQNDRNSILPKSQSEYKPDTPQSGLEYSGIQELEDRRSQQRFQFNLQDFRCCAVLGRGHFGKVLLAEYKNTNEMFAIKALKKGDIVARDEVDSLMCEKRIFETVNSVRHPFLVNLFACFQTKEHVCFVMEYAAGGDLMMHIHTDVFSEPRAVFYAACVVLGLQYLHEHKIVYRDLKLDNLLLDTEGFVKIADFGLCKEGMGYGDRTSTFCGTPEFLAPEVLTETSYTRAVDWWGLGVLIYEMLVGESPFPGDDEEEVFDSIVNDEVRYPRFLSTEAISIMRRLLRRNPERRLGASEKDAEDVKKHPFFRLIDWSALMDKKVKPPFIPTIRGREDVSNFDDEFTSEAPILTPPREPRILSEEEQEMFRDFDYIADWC

`CCN1CCN(Cc2ccc(NC(=O)c3ccc(C)c(NC(=O)c4cncc(-c5cccs5)c4)c3)cc2C(F)(F)F)CC1` [ALW-II-41-27]: the remaining binding at 10 µM is 4.3% at KinomeScan kinase panel [1]; 12% on KinomeScan kinase panel [2]; 4% at KinomeScan kinase panel [3] (kinase TRKB); over 30% on KinomeScan kinase panel [4] (PLK4, 10 µM); 0.2% on KinomeScan kinase panel [5] (kinase STK36, 10 µM); over 30% at KinomeScan kinase panel [6]. In addition, the remaining binding at 10 µM is over 30% at KinomeScan kinase panel [7] (kinase TLK2, 10 µM) and over 30% on KinomeScan kinase panel [8] (kinase SRPK3, 10 µM). Also, the “score (%)” value on KinomeScan kinase panel [9] is on record as 0.15%; at KinomeScan kinase panel [10] it was “nb (Hits values higher than 30% were considered negative (no binding: nb))”; at KinomeScan kinase panel [10] (setting [11]), 14%.
On to `CCN1CCN(Cc2ccc(NC(=O)c3ccc(C)c(/C=C/c4cnc5[nH]ccc5c4Cl)c3)cc2C(F)(F)F)CC1` [HG-6-63-01, (E)-3-(2-(4-chloro-1H-pyrrolo[2,3-b]pyridin-5-yl)vinyl)-N-(4-((4-ethylpiperazin-1-yl)methyl)-3-(trifluoromethyl)phenyl)-4-methylbenzamide], for which the remaining binding at 10 µM at KinomeScan kinase panel [1] was 1.6%; on KinomeScan kinase panel [2] it was 32%; on KinomeScan kinase panel [3] (TRKB), 1.6%; on KinomeScan kinase panel [4] (PLK4, 10 µM), over 30%; at KinomeScan kinase panel [5] (STK36, 10 µM) it was 0.05%; at KinomeScan kinase panel [6] it was 23%. Besides, the remaining binding at 10 µM on KinomeScan kinase panel [7] (TLK2, 10 µM) was over 30%; at KinomeScan kinase panel [8] (SRPK3, 10 µM) it was 22%. Further, the “score (%)” value was 0.1% on KinomeScan kinase panel [9]; “nb (Hits values higher than 30% were considered negative (no binding: nb))” at KinomeScan kinase panel [10] (JAK1(Kin.Dom.1), 10 µM); 11% at KinomeScan kinase panel [10] (JAK1(Kin.Dom.2), 10 µM).
On to `CCN1CCN(Cc2ccc(NC(=O)c3ccc(C)c(C#Cc4cccnc4)c3)cc2C(F)(F)F)CC1` [XMD15-44], for which the remaining binding at 10 µM at KinomeScan kinase panel [1] amounted to 0.5%; at KinomeScan kinase panel [2], 21%; at KinomeScan kinase panel [3] (kinase TRKB) it was 1.6%; on KinomeScan kinase panel [4] (kinase PLK4, 10 µM) it was 88%; at KinomeScan kinase panel [5] (kinase STK36, 10 µM), 0.4%; at KinomeScan kinase panel [6] it was 36%. For the same molecule, the remaining binding at 10 µM is 100% at KinomeScan kinase panel [7] (kinase TLK2, 10 µM) and 45% at KinomeScan kinase panel [8] (kinase SRPK3, 10 µM). Moreover, the “score (%)” value on KinomeScan kinase panel [9] is 0.75%; on KinomeScan kinase panel [10] (setting [11]) it was 6.2%; on KinomeScan kinase panel [10] (JAK1(JH2domain-pseudokinase), 10 µM) it was “nb (Hits values higher than 30% were considered negative (no binding: nb))”.
